Assay: Log P determined in accordance with OECD Guideline No. 107 for the Testing of Chemicals (water/n-octanol)
[1] = Log P (Log P value of the solvent, as measured in accordance with Guideline No. 107), summary table of the examples
[2] = Log P determined in accordance with OECD Guideline 107 for the Testing of Chemicals, water/n-octanol 1:1 by weight, 20° C.
[3] = log P value, as printed in the abbreviations list

Question: For `COC(C)(C)C` [MTBE, methyl tert.butyl ether], which logP [1] is on record?
Answer: Its logP is 1.12.

Question: And the logP [2]?
Answer: Its logP is 1.12.

Question: For `CCCCCCCCCC(=O)N(C)C` [Decanoic acid dimethyl amide], which logP [1] is on record?
Answer: The logP was 2.94.

Question: And the logP [2]?
Answer: Its logP is 2.94.

Question: What about the logP [3] of the same molecule?
Answer: The logP was 2.94.

Question: What does the source list for `CC(=O)CC(C)C` [MIBK, methyl isobutyl ketone]?
Answer: logP [1]: 1.4; logP [2]: 1.4; logP [3]: 1.31

Source: patent US20080188688A1, “SOLVENTS FOR PHASE-TRANSFER-CATALYZED REACTIONS” (priority 2007, published 2008)
